# Measurements as given in US10745408B2, “Biologically active taxane analogs and methods of treatment by oral administration” (Tapestry Pharmaceuticals, Inc., priority 2007, dated 2020).
# “Also recorded” adds a separate entry of the source. Where two headings read alike, the source gives them in different places.
# Legend:
# [1] = test system: MESSA; assay: MTS proliferation assay, uterine MESSA; assay type: cell-based; details: Homo sapiens, MES-SA
# Description: (§1) MTS Proliferation Assay (Promega)
# (§2) Day 1: Cells were plated in appropriate growth medium at 5×10^3 per well in 100 ul in 96 well tissue culture plates, Falcon, one for each drug to be tested. Col 1 was blank; it contained no cells, just medium. The plates were incubated overnight at 37° C., 5% CO2 to allow attachment.
# (§3) Day 2: Added 120 ul growth medium in wells of 96-well “dilution plates” (one for each drug) and let sit in 37° C. incubator for about 1 hr.
# (§4) Thawed DMSO drug stocks (usually at 10 mM). Each drug was diluted 6 ul into a tube with 3 ml growth medium, to 20 μM.
# (§5) Aspirated medium from col 12 of a dilution plate; added 200-300 ul of 20 uM drug to wells of col 12. Made serial dilution down this 96-well plate: for a […] dilution pattern, moved 60 ul from col 12 to col 11, mixed 4-5 times (using 8 place multi-pipettor), moved 60 ul to col 10, etc. stopping at col 3.
# (§6) Moved 100 ul of medium+drug from dilution plate to a cell plate, i.e. col 1 from drug plate (blank=no cells) to col 1 of cell plate, etc. up to col 12. Col 2 contained cells with no drug. […]
# (§7) Day 4 or 5: Terminated the assay 48 to 72 hrs after drug addition. […] When the color turned dark in control wells (col 2), and was still light in col 12, the absorbance at 490 nm was read on a plate reader; the results were used to calculate IC50.
# [2] = test system: U251 human CNS tumor cells (glioblastoma); details: for survivors day 100: QD1, 5, 9; for median day of death and median survival time: intravenous, q4d×3
# Excerpt: Tumor Model: Each animal was implanted with one million U251 human CNS tumor cells from an in vitro cell line by ic injection with a 25 gauge needle. The day of tumor implantation (May 24, 2006) was designated as day 0. A sufficient number of mice were implanted so that animals with body weights in a range as narrow as possible were selected for the trial on the day of treatment initiation (day 1 after tumor implantation). Animals were randomly assigned to the treatment groups and individually identified by earmark codes.
# A portion of this solution was then diluted with the complete vehicle to achieve the lower dosing concentration of 1.2 mg/mL. […] Temozolomide (Temodar, Schering Corporation) was prepared on each day of injection in Klucel+tween 80 at a concentration of 4 mg/mL. Temozolomide was administered within 5 minutes of formulation on the basis of exact body weight using a volume of 0.2 mL/10 g of body weight.
# Data Collection: Animal health surveillance was conducted and mortality data were collected daily. The animals were weighed twice weekly starting with the first day of treatment.
# Study Duration: The study was terminated 100 days after tumor implantation. Any animal found moribund or whose body weight dropped below 14 g was euthanized prior to study termination.
# Parameters Evaluated: Number of 100-day survivors, median day of death, and the increase in lifespan based on median day of death and expressed as a percentage (% ILS), median survival time and the % ILS based on median survival time.
# [3] = test system: FADU; assay: MTS proliferation assay, head/neck FADU; assay type: cell-based; details: Homo sapiens
# Description: as §1, §2, §3, §4, §5, §6, §7
# [4] = test system: KB; assay: MTS proliferation assay, head/neck KB; assay type: cell-based; details: Homo sapiens
# Description: as §1, §2, §3, §4, §5, §6, §7
# [5] = Human tumor xenografts in nude mice (efficacy and MTD studies); assay type: in vivo; details: mouse, in vivo, po; nude mice, from efficacy and MTD studies; read-out: apparent oral bioavailability
# [6] = test system: human tumor xenografts; assay: as above; assay type: in vivo
# [7] = test system: SKNAS; assay: MTS proliferation assay, neuroblastoma SKNAS; assay type: cell-based; details: Homo sapiens, SK-N-AS
# Description: as §1, §2, §3, §4, §5, §6, §7
# [8] = test system: patients with advanced neoplasms; assay: Phase 1 Study S-(1)-02 safety, tolerability and anti-neoplastic activity; assay type: in vivo, human
# Excerpt: Both trials have enrolled patients with advanced solid tumors, non-Hodgkin's lymphoma or Hodgkin's lymphoma that have recurred or progressed following at least standard therapy; patients with malignancies for which there is no standard therapy; patients who are not candidates for standard therapy; or patients who have chosen not to pursue standard therapy. […] Study S-(1)-01 is currently being conducted in the United States. […] Study S-(1)-02 is currently being conducted in the United States and in Israel.
# Treatment cohorts were expanded to 6 pts in the face of dose-limiting toxicity (DLT); pts could remain on study until the development of progressive disease or an intolerable adverse event. DLT was defined as Gr 4 heme toxicity lasting 7 days; febrile neutropenia, Gr 3 thrombocytopenia with bleeding, Gr 3 elevation of transaminases lasting 7 days or any other Gr 3/4 toxicity other than nausea or vomiting.
# [9] = test system: PC-3; assay: MTS proliferation assay, prostate PC-3; assay type: cell-based; details: Homo sapiens
# Description: as §1, §2, §3, §4, §5, §6, §7
structure (smiles),measurement,setting,value
C=C[C@H]1O[C@H]2C[C@H]3OC[C@@]3(OC(C)=O)[C@H]3[C@H](OC(=O)c4ccccc4)[C@]4(C(C)(C)O)CC(OC(=O)[C@H](O)C(CC(C)C)NC(=O)OC(C)(C)C)C(C)=C4[C@H](OC(C)=O)[C@H](O1)[C@]23C (stereo partly drawn) [S-(1)],IC50,[1],2.9 nM
same,survivors day 100,[2]; S-(1) 12 mg/kg,100 = 0)
same,median day of death and median survival time,[2]; S-(1) 12 mg/kg/dose,14.5 days
same,survivors day 100,[2]; S-(1) 20 mg/kg,100 = 0)
same,median day of death and median survival time,[2]; S-(1) 20 mg/kg/dose,16 days
same,effect against the U251 human CNS tumor cells (in words),[2]; monotherapy or combination as dosed in the study,moderate effect
same,IC50,[3],21 nM
same,IC50,[4],9.4 nM
same,bioavailability,[5],40 to 80%
same,efficacy in mouse xenografts,[6]; dosed either oral or iv,shows efficacy
same,antitumor activity against multiple human tumor xenografts,[6]; including xenografts that expressed mdr-1 and were resistant to other taxanes,demonstrated antitumor activity; also recorded: suppressed the growth
same,IC50,[7],11 nM
same,Dose limiting toxicity,[8]; 160 mg/m^2 every 21 days,no DLT was observed
same,Dose limiting toxicity,[8]; 185 mg/m^2 every 21 days,Grade 3 sensory neuropathy; also recorded: Gr 3 peripheral sensory neuropathy
same,anti-neoplastic activity,[8]; 1 pt with pancreatic cancer,confirmed response
same,Drug related adverse events,[8]; 56-185 mg/m^2 every 21 days,"mucositis, vomiting, diarrhea, neutropenia, thrombocytopenia, myalgias and peripheral neuropathy"
same,dose that can be safely administered,"[8]; every 21 days, heavily pre-treated patients",160 mg/m^2
same,IC50,[9],0.03 nM
